According to patent US8324264B1, “Inhibitors of bacterial biofilms and related methods” (Sequoia Sciences, Inc., priority 2011, dated 2012):
≈ marks a conversion by molar mass, not a printed value.

Legend:
[1] = system: E. coli biofilms; experiment: Biofilm growth assay (spreading biofilm on semi-solid agar), E. coli; assay type: cell-based; conditions: biofilm growth assay, overnight 37° C., vs negative controls, Tables 1-5; for IC85: Escherichia coli, read-out: E. coli: concentration that reduces the area of the spreading biofilm by greater than or equal to 85%
In short: (§1)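 Values are compound concentrations (μg/ml) that cut the spreading-biofilm zone area by ≥85% relative to negative controls after overnight 37 °C growth from 5 μL central inoculum. E. coli plates: LB, 0.6% agar, 0.5% glucose; P. aeruginosa plates: M8 agar plus 0.2% glucose, 100 μM CaCl2, 1 mM MgSO4, 0.5% Casamino acids.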

[2] = system: P. aeruginosa biofilms; experiment: Biofilm growth assay (spreading biofilm on semi-solid agar), P. aeruginosa; assay type: cell-based; conditions: biofilm growth assay, overnight 37° C., vs negative controls, Tables 1-5; for IC85: Pseudomonas aeruginosa, read-out: P. aeruginosa: concentration that reduces the area of the spreading biofilm by greater than or equal to 85%
In short: as §1

| Compound | IC85 [1] [µg/mL] | IC85 [2] [µg/mL] | E. coli: concentration that reduces the area of the spreading biofilm by greater than or equal to 85% [1] [µg/mL] | P. aeruginosa: concentration that reduces the area of the spreading biofilm by greater than or equal to 85% [2] [µg/mL] |
| --- | --- | --- | --- | --- |
| CC1(C)CC[C@]2(C(=O)O)CC[C@]3(C)C(=C(c4ccccc4N)CC4[C@@]5(C)Cc6c(n[nH]c6N)C(C)(C)C5CC[C@]43C)C2C1 (stereo partly drawn) [Example 23, (4aS,6aS,6bR,13aR)-12-Amino-15-(2-aminophenyl)-2,2,6a,6b,9,9,13a-heptamethyl-2,3,4,4a,5,6,6a,6b,7,8,8a,9,11,13,13a,13b,14,15b-octadecahydro-1H-chryseno[1,2-f]indazole-4-a-carboxylic acid] | 2 (≈ 3.42 µM) | 1 (≈ 1.71 µM) | – | – |
| CC1(C)CC[C@]2(C(=O)O)CC[C@]3(C)C(=C(Cl)CC4[C@@]5(C)Cc6c(n[nH]c6N)C(C)(C)C5CC[C@]43C)C2C1 (stereo partly drawn) [Example 24, (4aS,6aS,6bR,13aR)-12-Amino-15-chloro-2,2,6a,6b,9,9,13a-heptamethyl-2,3,4,4a,5,6,6a,6b,7,8,8a,9,11,13,13a,13b,14,15b-octadecahydro-1H-chryseno[1,2-f]indazole-4-a-carboxylic acid] | 1 (≈ 1.89 µM) | 0.5 (≈ 0.947 µM) | – | – |
| CC1(C)CC[C@]2(C(=O)O)CC[C@]3(C)C(=C(Br)CC4[C@@]5(C)Cc6c(n[nH]c6N)C(C)(C)[C@@H]5CC[C@]43C)[C@@H]2C1 (stereo partly drawn) [Example 25, (4aS,6aS,6bR,8aR,13aR,15bR)-12-Amino-15-bromo-2,2,6a,6b,9,9,13a-heptamethyl-2,3,4,4a,5,6,6a,6b,7,8,8a,9,11,13,13a,13b,14,15b-octadecahydro-1H-chryseno[1,2-f]indazole-4-a-carboxylic acid] | – | – | >2 | 0.5 |
| CC1(C)CC[C@]2(C(=O)O)CC[C@]3(C)C(=C(c4ccoc4)CC4[C@@]5(C)Cc6c(n[nH]c6N)C(C)(C)[C@@H]5CC[C@]43C)[C@@H]2C1 (stereo partly drawn) [Example 26, (4aS,6aS,6bR,8aR,13aR,15bS)-12-Amino-15-(furan-3-yl)-2,2,6a,6b,9,9,13a-heptamethyl-2,3,4,4a,5,6,6a,6b,7,8,8a,9,11,13,13a,13b,14,15b-octadecahydro-1H-chryseno[1,2-f]indazole-4-a-carboxylic acid] | – | – | 1 | 0.25 |
| CC1(C)CC[C@]2(C(=O)O)CC[C@]3(C)C(=C(c4cn[nH]c4)CC4[C@@]5(C)Cc6c(n[nH]c6N)C(C)(C)[C@@H]5CC[C@]43C)[C@@H]2C1 (stereo partly drawn) [Example 27, (4aS,6aS,6bR,8aR,13aR,15bS)-12-Amino-2,2,6a,6b,9,9,13a-heptamethyl-15-(1H-pyrazol-4-yl)-2,3,4,4a,5,6,6a,6b,7,8,8a,9,11,13,13a,13b,14,15b-octadecahydro-1H-chryseno[1,2-f]indazole-4-a-carboxylic acid] | – | – | >2 | 1 |
| Cn1cc(C2=C3[C@@H]4CC(C)(C)CC[C@]4(C(=O)O)CC[C@@]3(C)[C@]3(C)CC[C@H]4C(C)(C)c5n[nH]c(N)c5C[C@]4(C)C3C2)cn1 (stereo partly drawn) [Example 28, (4aS,6aS,6bR,8aR,13aR,15bS)-12-Amino-2,2,6a,6b,9,9,13a-heptamethyl-15-(1-methyl-1H-pyrazol-4-yl)-2,3,4,4a,5,6,6a,6b,7,8,8a,9,11,13,13a,13b,14,15b-octadecahydro-1H-chryseno[1,2-f]indazole-4-a-carboxylic acid] | – | – | 2 | 1 |
| CC1(C)CC[C@]2(C(=O)O)CC[C@]3(C)C(=C(c4ccncc4)CC4[C@@]5(C)Cc6c(n[nH]c6N)C(C)(C)[C@@H]5CC[C@]43C)[C@@H]2C1 (stereo partly drawn) [Example 29, (4aS,6aS,6bR,8aR,13aR,15bS)-12-Amino-2,2,6a,6b,9,9,13a-heptamethyl-15-(pyridin-4-yl)-2,3,4,4a,5,6,6a,6b,7,8,8a,9,11,13,13a,13b,14,15b-octadecahydro-1H-chryseno[1,2-f]indazole-4-a-carboxylic acid] | – | – | 1 | 1 |
| CC1(C)CC[C@]2(C(=O)O)CC[C@]3(C)C(=C(c4cncnc4)CC4[C@@]5(C)Cc6c(n[nH]c6N)C(C)(C)[C@@H]5CC[C@]43C)[C@@H]2C1 (stereo partly drawn) [Example 30, (4aS,6aS,6bR,8aR,13aR,15bS)-12-Amino-2,2,6a,6b,9,9,13a-heptamethyl-15-(pyrimidin-5-yl)-2,3,4,4a,5,6,6a,6b,7,8,8a,9,11,13,13a,13b,14,15b-octadecahydro-1H-chryseno[1,2-f]indazole-4-a-carboxylic acid] | – | – | 1 | 2 |
| CC1(C)CC[C@]2(C(=O)O)CC[C@]3(C)C(=C(c4ccc(N)c(F)c4)CC4[C@@]5(C)Cc6c(n[nH]c6N)C(C)(C)C5CC[C@]43C)C2C1 (stereo partly drawn) [Example 31, (4aS,6aS,6bR,13aR)-12-Amino-15-(4-amino-3-fluorophenyl)-2,2,6a,6b,9,9,13a-heptamethyl-2,3,4,4a,5,6,6a,6b,7,8,8a,9,11,13,13a,13b,14,15b-octadecahydro-1H-chryseno[1,2-f]indazole-4-a-carboxylic acid] | – | – | 1 | 0.5 |
| CC1(C)CC[C@]2(C(=O)O)CC[C@]3(C)C(=C(c4ccoc4CN4CCOCC4)CC4[C@@]5(C)Cc6c(n[nH]c6N)C(C)(C)[C@@H]5CC[C@]43C)[C@@H]2C1 (stereo partly drawn) [Example 32, (4aS,6aS,6bR,8aR,13aR,15bS)-12-Amino-2,2,6a,6b,9,9,13a-heptamethyl-15-(2-(morpholinomethyl)furan-3-yl)-2,3,4,4a,5,6,6a,6b,7,8,8a,9,11,13,13a,13b,14,15b-octadecahydro-1H-chryseno[1,2-f]indazole-4-a-carboxylic acid] | – | – | 1 | 0.5 |
| CC1(C)CC[C@]2(C(=O)O)CC[C@]3(C)C(=C(c4c[nH]cc4CN4CCOCC4)CC4[C@@]5(C)Cc6c(n[nH]c6N)C(C)(C)[C@@H]5CC[C@]43C)[C@@H]2C1 (stereo partly drawn) [Example 33, (4aS,6aS,6bR,8aR,13aR,15bS)-12-Amino-2,2,6a,6b,9,9,13a-heptamethyl-15-(4-(morpholinomethyl)-1H-pyrrol-3-yl)-2,3,4,4a,5,6,6a,6b,7,8,8a,9,11,13,13a,13b,14,15b-octadecahydro-1H-chryseno[1,2-f]indazole-4-a-carboxylic acid] | – | – | 4 | 2 |
| CC1(C)CC[C@]2(C(=O)O)CC[C@]3(C)C(=C(c4ccsc4CN4CCOCC4)CC4[C@@]5(C)Cc6c(n[nH]c6N)C(C)(C)C5CC[C@]43C)C2C1 (stereo partly drawn) [Example 34, (4aS,6aS,6bR,13aR)-12-Amino-2,2,6a,6b,9,9,13a-heptamethyl-15-(2-(morpholinomethyl)thiophen-3-yl)-2,3,4,4a,5,6,6a,6b,7,8,8a,9,11,13,13a,13b,14,15b-octadecahydro-1H-chryseno[1,2-f]indazole-4-a-carboxylic acid] | – | – | 1 | 1 |
| CC1(C)CC[C@]2(C(=O)O)CC[C@]3(C)C(=C(c4ccoc4CN4CCNCC4)CC4[C@@]5(C)Cc6c(n[nH]c6N)C(C)(C)[C@@H]5CC[C@]43C)[C@@H]2C1 (stereo partly drawn) [Example 35, (4aS,6aS,6bR,8aR,13aR,15bS)-12-Amino-2,2,6a,6b,9,9,13a-heptamethyl-15-(2-(piperazin-1-ylmethyl)furan-3-yl)-2,3,4,4a,5,6,6a,6b,7,8,8a,9,11,13,13a,13b,14,15b-octadecahydro-1H-chryseno[1,2-f]indazole-4-a-carboxylic acid] | – | – | 1 | >1 |
| CN1CCN(Cc2occc2C2=C3[C@@H]4CC(C)(C)CC[C@]4(C(=O)O)CC[C@@]3(C)[C@]3(C)CC[C@H]4C(C)(C)c5n[nH]c(N)c5C[C@]4(C)C3C2)CC1 (stereo partly drawn) [Example 36, (4aS,6aS,6bR,8aR,13aR,15bS)-12-Amino-2,2,6a,6b,9,9,13a-heptamethyl-15-(2-((4-methylpiperazin-1-yl)methyl)furan-3-yl)-2,3,4,4a,5,6,6a,6b,7,8,8a,9,11,13,13a,13b,14,15b-octadecahydro-1H-chryseno[1,2-f]indazole-4-a-carboxylic acid] | – | – | 2 | >1 |
| CC1(C)CC[C@]2(C(=O)O)CC[C@]3(C)C(=C(c4ccoc4CN4CCCC4)CC4[C@@]5(C)Cc6c(n[nH]c6N)C(C)(C)C5CC[C@]43C)C2C1 (stereo partly drawn) [Example 37, (4aS,6aS,6bR,13aR)-12-Amino-2,2,6a,6b,9,9,13a-heptamethyl-15-(2-(pyrrolidin-1-ylmethyl)furan-3-yl)-2,3,4,4a,5,6,6a,6b,7,8,8a,9,11,13,13a,13b,14,15b-octadecahydro-1H-chryseno[1,2-f]indazole-4-a-carboxylic acid] | – | – | 1 | >1 |
